Active and inactive are the calls of the source. No cut-off for these calls is given here.
Assays:
Umbelopsis ramanniana = assay: Antimicrobial activity against Mortierella ramanniana; assay type: functional, organism-based
Escherichia coli [1] = assay: Antimicrobial activity against Escherichia coli at 50 ug/disk; assay type: functional; conditions: read-out: IZ
Escherichia coli [2] = assay: Antimicrobial activity against Escherichia coli by […]; assay type: functional, organism-based

| SMILES | Activity (Umbelopsis ramanniana) | zone of inhibition at 50 µg/disc (Escherichia coli [1]) | Activity (Escherichia coli [2]) |
| --- | --- | --- | --- |
| CCCCCCCC(C)CCCCCCCCOC[C@@H](O)COP(=O)(O)O[C@@H]1[C@@H](O)[C@H](O)[C@@H](O)[C@H](O)[C@@H]1O (some centres undefined) | inactive | 12 mm |  |
| CCCCCCC1C(C)C1CCCCCCCOC[C@@H](O)COP(=O)(O)O[C@@H]1[C@@H](O)[C@H](O)[C@@H](O)[C@H](O)[C@@H]1O (some centres undefined) | inactive |  | Active |

— ChEMBL document CHEMBL1155698, “Two new antimicrobial lysoplasmanylinositols from the marine sponge Theonella swinhoei” (2001)
